Results: patent US10294202B2, “Pyrrolidinones as herbicides” (FMC Corporation, priority 2013, dated 2019)

Experiments:
[1] = tested on: wheat; experiment: Test A pre-/postemergence herbicide test; assay type: in vivo, Triticum aestivum; details: Postemergence; for Plant response rating, Wheat: 125 g ai/ha, 0 to 100 scale; for Wheat plant response rating (0 to 100 scale, 0 is no effect, 100 is complete control): 500 g ai/ha
How it was run: (§1)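 Approximately 10 days after treatment in the greenhouse, plants were compared with untreated controls and given a 0–100 visual injury rating. Applications: preemergence directed soil spray; postemergence on 2–10 cm plants at the one- to two-leaf stage.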

[2] = tested on: giant foxtail; experiment: Test A pre-/postemergence herbicide test; assay type: in vivo, Setaria faberii; details: for Plant response rating, Foxtail, Giant: 0 to 100 scale
How it was run: as §1

[3] = tested on: rice; experiment: Test B flooded paddy test; assay type: in vivo, Oryza sativa; details: 500 g ai/ha, Flood; scale of 0 to 100 where 0 is no effect and 100 is complete control
How it was run: (§2)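 First, plants reach the 2-leaf stage; next, pots are flooded to 3 cm and compound is delivered into the water; finally, after 13 to 15 greenhouse days at constant depth, injury is graded visually from 0 to 100 against controls.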

[4] = tested on: ryegrass, Italian; experiment: Test A pre-/postemergence herbicide test; assay type: in vivo, Lolium multiflorum; details: for Plant response rating, Ryegrass, Italian: 0 to 100 scale
How it was run: as §1

[5] = tested on: barnyardgrass; experiment: Test A pre-/postemergence herbicide test; assay type: in vivo, Echinochloa crus-galli
How it was run: as §1

[6] = tested on: sedge, umbrella; experiment: Test B flooded paddy test; assay type: in vivo, Cyperus difformis; details: 500 g ai/ha, Flood; scale of 0 to 100 where 0 is no effect and 100 is complete control
How it was run: as §2

[7] = tested on: ragweed; experiment: Test A pre-/postemergence herbicide test; assay type: in vivo, Ambrosia elatior; details: for Plant response rating, Ragweed: 0 to 100 scale
How it was run: as §1

[8] = tested on: corn; experiment: Test A pre-/postemergence herbicide test; assay type: in vivo, Zea mays; details: Postemergence; for Plant response rating, Corn: 125 g ai/ha, 0 to 100 scale; for Corn plant response rating (0 to 100 scale, 0 is no effect, 100 is complete control): 500 g ai/ha
How it was run: as §1

[9] = tested on: galium; experiment: Test A postemergence herbicide test; assay type: in vivo, Galium aparine; details: for Plant response rating, Galium: 125 g ai/ha, 0 to 100 scale; for Galium plant response rating (0 to 100 scale, 0 is no effect, 100 is complete control): 500 g ai/ha
How it was run: (§3)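 Plants at the one- to two-leaf stage, 2–10 cm tall, grown in loam/sand pots, received postemergence sprays of the test chemicals. After about 10 days in the greenhouse, injury was scored visually against untreated controls on a 0–100 scale (0 none, 100 complete control).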

[10] = tested on: blackgrass; experiment: Test A postemergence herbicide test; assay type: in vivo, Alopecurus myosuroides; details: for Plant response rating, Blackgrass: 125 g ai/ha, 0 to 100 scale; for Blackgrass plant response rating (0 to 100 scale, 0 is no effect, 100 is complete control): 500 g ai/ha
How it was run: as §3

[11] = tested on: ducksalad; experiment: Test B flooded paddy test; assay type: in vivo, Heteranthera limosa; details: 500 g ai/ha, Flood; scale of 0 to 100 where 0 is no effect and 100 is complete control
How it was run: as §2

[12] = tested on: kochia; experiment: Test A pre-/postemergence herbicide test; assay type: in vivo, Kochia scoparia; details: for Plant response rating, Kochia: 0 to 100 scale
How it was run: as §1

[13] = tested on: pigweed; experiment: Test A pre-/postemergence herbicide test; assay type: in vivo, Amaranthus retroflexus; details: for Plant response rating, Pigweed: 0 to 100 scale
How it was run: as §1

[14] = tested on: barnyardgrass; experiment: Test B flooded paddy test; assay type: in vivo, Echinochloa crus-galli; details: 500 g ai/ha, Flood; scale of 0 to 100 where 0 is no effect and 100 is complete control
How it was run: as §2

[15] = 0 no effect, 100 complete control
[16] = 125 g ai/ha, visual rating, 0 no effect, 100 complete control, approximately 10 days, preemergence
[17] = Postemergence, 125 g ai/ha, 0 no effect, 100 complete control
[18] = preemergence, 500 g ai/ha, 0 is no effect and 100 is complete control
[19] = 125 g ai/ha, visual rating, 0 to 100 scale, 0 no effect, 100 complete control, approximately 10 days, preemergence
[20] = preemergence, 500 g ai/ha, 0 to 100 scale (0 no effect, 100 complete control)
[21] = 0 is no effect, 100 is complete control
[22] = Postemergence, 125 g ai/ha, 0 is no effect, 100 is complete control

Structure (SMILES) | Wheat plant response rating (0 to 100 scale, 0 is no effect, 100 is complete control) [1] | Plant response rating, Foxtail, Giant [2, 16] | Foxtail, Giant plant response rating (0 to 100 scale, 0 is no effect, 100 is complete control) ([2]; Postemergence, 500 g ai/ha) | Plant response rating, Foxtail, Giant ([2]; preemergence, 500 g ai/ha) | Plant response rating, Rice [3] | Plant response rating, Ryegrass, Italian [4, 16] | Ryegrass, Italian plant response rating (0 to 100 scale, 0 is no effect, 100 is complete control) ([4]; Postemergence, 500 g ai/ha) | Plant response rating, Ryegrass, Italian [4, 18] | Plant response rating, Barnyardgrass [5, 19] | Barnyardgrass plant response rating (0 to 100 scale, 0 is no effect, 100 is complete control) ([5]; Postemergence, 500 g ai/ha) | Plant response rating, Barnyardgrass [5, 20] | Plant response rating, Sedge, Umbrella [6] | Plant response rating, Ragweed [7, 16] | Ragweed plant response rating (0 to 100 scale, 0 is no effect, 100 is complete control) ([7]; Postemergence, 500 g ai/ha) | Plant response rating, Ragweed [7, 18] | Corn plant response rating (0 to 100 scale, 0 is no effect, 100 is complete control) [8] | Galium plant response rating (0 to 100 scale, 0 is no effect, 100 is complete control) [9] | Blackgrass plant response rating (0 to 100 scale, 0 is no effect, 100 is complete control) [10] | Plant response rating, Ducksalad [11] | Plant response rating, Kochia [12, 16] | other results
Cc1ccc(C2CNC(=O)C2C(=O)Nc2ccccc2Cl)cc1 (racemic) [Compound 152] | 0 | 70 | 60 | 90 | 15 | 0 | 50 | 30 | 90 | 80 | 90 | 0 | 50 | 50 | 70 | 0 | 70 | 50 | 100 | 30 | Plant response rating, Wheat [1, 15]: 0; Plant response rating, Foxtail, Giant [2, 17]: 50; Plant response rating, Ryegrass, Italian [4, 17]: 10; Plant response rating, Barnyardgrass ([5]; Postemergence, 125 g ai/ha, 0 to 100 scale, 0 no effect, 100 complete control): 70; Plant response rating, Ragweed [7, 17]: 40; Plant response rating, Corn [8, 15]: 0; Plant response rating, Galium [9, 15]: 60; Plant response rating, Blackgrass [10, 15]: 0; Plant response rating, Kochia [12, 17]: 50; Kochia plant response rating (0 to 100 scale, 0 is no effect, 100 is complete control) ([12]; Postemergence, 500 g ai/ha): 60; Plant response rating, Kochia [12, 18]: 60; Plant response rating, Pigweed [13, 16]: 0; Plant response rating, Pigweed [13, 17]: 0; Pigweed plant response rating (0 to 100 scale, 0 is no effect, 100 is complete control) ([13]; Postemergence, 500 g ai/ha): 20; Plant response rating, Pigweed [13, 18]: 10; Plant response rating, Barnyardgrass [14]: 60
Cc1ccc(C2CNC(=O)C2C(=O)Nc2cccc(F)c2)cc1 (racemic) [Compound 153] | 0 | 60 | 60 | 80 | 10 | 0 | 0 | 0 | 80 | 80 | 90 | 0 | 0 | 10 | 80 | 0 | 60 | 30 | 100 | 60 | Plant response rating, Wheat [1, 21]: 0; Plant response rating, Foxtail, Giant [2, 22]: 50; Plant response rating, Ryegrass, Italian [4, 22]: 0; Plant response rating, Barnyardgrass ([5]; Postemergence, 125 g ai/ha, 0 to 100 scale, 0 is no effect, 100 is complete control): 60; Plant response rating, Ragweed [7, 22]: 0; Plant response rating, Corn [8, 21]: 0; Plant response rating, Galium [9, 21]: 0; Plant response rating, Blackgrass [10, 21]: 40; Plant response rating, Kochia [12, 22]: 60; Kochia plant response rating (0 to 100 scale, 0 is no effect, 100 is complete control) ([12]; Postemergence, 500 g ai/ha): 60; Plant response rating, Kochia [12, 18]: 80; Plant response rating, Pigweed [13, 16]: 0; Plant response rating, Pigweed [13, 22]: 40; Pigweed plant response rating (0 to 100 scale, 0 is no effect, 100 is complete control) ([13]; Postemergence, 500 g ai/ha): 50; Plant response rating, Pigweed [13, 18]: 0; Plant response rating, Barnyardgrass [14]: 60
